Assay results: ChEMBL document CHEMBL1150459, “The -iodoethoxyl group: a stable unit for radioiodination” (Bioorg Med Chem Lett, 1994)

How the values were obtained:
[1] = tested on: Mus musculus; test: Biodistribution of [123I]- labeled compound in mice heart was determined after 2 min of administration; expressed in percent of injected dose per gram of organ; format: ADME, organism-based; conditions: in vivo
[2] = tested on: Mus musculus; test: Biodistribution of [123I]- labeled compound in mice lungs was determined after 2 min of administration; expressed in percent of injected dose per gram of organ; format: ADME, organism-based, Lung; conditions: in vivo
[3] = tested on: Mus musculus; test: Biodistribution of [123I]- labeled compound in mice kidneys was determined after 30 sec of administration; expressed in percent of injected dose per gram of organ; format: ADME, organism-based, Kidney; conditions: in vivo, 0.5 min
[4] = tested on: Mus musculus; test: Biodistribution of [123I]- labeled compound in mice kidneys was determined after 15 sec of administration; expressed in percent of injected dose per gram of organ; format: ADME, organism-based, Kidney; conditions: in vivo, 15 s
[5] = tested on: Mus musculus; test: Biodistribution of [123I]- labeled compound in mice lungs was determined after 5 min of administration; expressed in percent of injected dose per gram of organ; format: ADME, organism-based, Lung; conditions: in vivo
[6] = tested on: Mus musculus; test: Biodistribution of [123I]- labeled compound in mice lungs was determined after 15 sec of administration; expressed in percent of injected dose per gram of organ; format: ADME, organism-based, Lung; conditions: in vivo, 15 s
[7] = tested on: Mus musculus; test: Biodistribution of [123I]- labeled compound in mice brain was determined after 15 sec of administration; expressed in percent of injected dose per gram of organ; format: ADME, organism-based; conditions: in vivo, 15 s
[8] = tested on: Mus musculus; test: Biodistribution of [123I]- labeled compound in mice liver was determined after 10 min of administration; expressed in percent of injected dose per gram of organ; format: ADME, organism-based; conditions: in vivo
[9] = tested on: Mus musculus; test: Biodistribution of [123I]- labeled compound in mice liver was determined after 30 sec of administration; expressed in percent of injected dose per gram of organ; format: ADME, organism-based; conditions: in vivo, 0.5 min
[10] = tested on: Mus musculus; test: Biodistribution of [123I]- labeled compound in mice liver was determined after 2 min of administration; expressed in percent of injected dose per gram of organ; format: ADME, organism-based; conditions: in vivo
[11] = tested on: Mus musculus; test: Biodistribution of [123I]- labeled compound in mice lungs was determined after 10 min of administration; expressed in percent of injected dose per gram of organ; format: ADME, organism-based, Lung; conditions: in vivo
[12] = tested on: Mus musculus; test: Biodistribution of [123I]- labeled compound in mice brain was determined after 1 min of administration; expressed in percent of injected dose per gram of organ; format: ADME, organism-based; conditions: in vivo
[13] = tested on: Mus musculus; test: Biodistribution of [123I]- labeled compound in mice kidneys was determined after 10 min of administration; expressed in percent of injected dose per gram of organ; format: ADME, organism-based, Kidney; conditions: in vivo
[14] = tested on: Mus musculus; test: Biodistribution of [123I]- labeled compound in mice lungs was determined after 30 sec of administration; expressed in percent of injected dose per gram of organ; format: ADME, organism-based, Lung; conditions: in vivo, 0.5 min
[15] = tested on: Mus musculus; test: Biodistribution of [123I]- labeled compound in mice heart was determined after 1 min of administration; expressed in percent of injected dose per gram of organ; format: ADME, organism-based; conditions: in vivo
[16] = tested on: Mus musculus; test: Biodistribution of [123I]- labeled compound in mice liver was determined after 5 min of administration; expressed in percent of injected dose per gram of organ; format: ADME, organism-based; conditions: in vivo
[17] = tested on: Mus musculus; test: Biodistribution of [123I]- labeled compound in mice brain was determined after 2 min of administration; expressed in percent of injected dose per gram of organ; format: ADME, organism-based; conditions: in vivo
[18] = tested on: Mus musculus; test: Biodistribution of [123I]- labeled compound in mice brain was determined after 30 sec of administration; expressed in percent of injected dose per gram of organ; format: ADME, organism-based; conditions: in vivo, 0.5 min
[19] = tested on: Mus musculus; test: Biodistribution of [123I]- labeled compound in mice liver was determined after 15 sec of administration; expressed in percent of injected dose per gram of organ; format: ADME, organism-based; conditions: in vivo, 15 s
[20] = tested on: Mus musculus; test: Biodistribution of [123I]- labeled compound in mice kidneys was determined after 1 min of administration; expressed in percent of injected dose per gram of organ; format: ADME, organism-based, Kidney; conditions: in vivo
[21] = tested on: Mus musculus; test: Biodistribution of [123I]- labeled compound in mice liver was determined after 1 min of administration; expressed in percent of injected dose per gram of organ; format: ADME, organism-based; conditions: in vivo
[22] = tested on: Mus musculus; test: Biodistribution of [123I]- labeled compound in mice heart was determined after 15 sec of administration; expressed in percent of injected dose per gram of organ; format: ADME, organism-based; conditions: in vivo, 15 s
[23] = tested on: Mus musculus; test: Biodistribution of [123I]- labeled compound in mice brain was determined after 10 min of administration; expressed in percent of injected dose per gram of organ; format: ADME, organism-based; conditions: in vivo
[24] = tested on: Mus musculus; test: Biodistribution of [123I]- labeled compound in mice heart was determined after 30 sec of administration; expressed in percent of injected dose per gram of organ; format: ADME, organism-based; conditions: in vivo, 0.5 min
[25] = tested on: Mus musculus; test: Biodistribution of [123I]- labeled compound in mice heart was determined after 10 min of administration; expressed in percent of injected dose per gram of organ; format: ADME, organism-based; conditions: in vivo
[26] = tested on: Mus musculus; test: Biodistribution of [123I]- labeled compound in mice heart was determined after 5 min of administration; expressed in percent of injected dose per gram of organ; format: ADME, organism-based; conditions: in vivo
[27] = tested on: Mus musculus; test: Biodistribution of [123I]- labeled compound in mice brain was determined after 5 min of administration; expressed in percent of injected dose per gram of organ; format: ADME, organism-based; conditions: in vivo
[28] = tested on: Mus musculus; test: Biodistribution of [123I]- labeled compound in mice kidneys was determined after 2 min of administration; expressed in percent of injected dose per gram of organ; format: ADME, organism-based, Kidney; conditions: in vivo
[29] = tested on: Mus musculus; test: Biodistribution of [123I]- labeled compound in mice lungs was determined after 1 min of administration; expressed in percent of injected dose per gram of organ; format: ADME, organism-based, Lung; conditions: in vivo
[30] = tested on: Mus musculus; test: Biodistribution of [123I]- labeled compound in mice kidneys was determined after 5 min of administration; expressed in percent of injected dose per gram of organ; format: ADME, organism-based, Kidney; conditions: in vivo

O=C(O)CCOCCI
Biodistribution [1]: 5.3% | Biodistribution [2]: 10.9% | Biodistribution [3]: 8.8% | Biodistribution [4]: 8.6% | Biodistribution [5]: 8.8% | Biodistribution [6]: 18.4% | Biodistribution [7]: 5.5% | Biodistribution [8]: 7.1% | Biodistribution [9]: 5.5% | Biodistribution [10]: 8.5% | Biodistribution [11]: 6.5% | Biodistribution [12]: 4.7% | Biodistribution [13]: 12.7% | Biodistribution [14]: 12.6% | Biodistribution [15]: 6.2% | Biodistribution [16]: 9.9% | Biodistribution [17]: 4.1% | Biodistribution [18]: 5.1% | Biodistribution [19]: 2.3% | Biodistribution [20]: 9% | Biodistribution [21]: 7.8% | Biodistribution [22]: 17.8% | Biodistribution [23]: 1.6% | Biodistribution [24]: 7.9% | Biodistribution [25]: 3.2% | Biodistribution [26]: 4.2% | Biodistribution [27]: 2.4% | Biodistribution [28]: 11.3% | Biodistribution [29]: 12% | Biodistribution [30]: 13.2%
